# Assay results from patent publication US4607034A, “Quinazoline derivatives and pharmaceutical composition thereof” (priority 1979, dated 1986).
# Read-outs that look alike come from different tables or passages of the source.
# Assays:
# [1] = tested on: spontaneously hypertensive rats (SHR); test: Antihypertensive test in spontaneously hypertensive rats (mean blood pressure); assay type: in vivo, male); settings: Rattus norvegicus
# Method: (§1) Through a cannula chronically intubated into the abdominal aorta of a male SHR of 20 to 30 weeks after birth, mean blood pressure and heart rate were measured by means of an electronic recording system without anesthesia and restraint. Five rats were employed in one group of SHR. […] At 1, 3, 6 and 24 hours after administration of test samples, blood pressure and heart rate were determined.
# in vivo = assay type: in vivo; settings: mouse, in vivo; oral, mice, ten mice/group, observed one week
# Method: (§2) Ten ICR-strain male mice weighing from 25 to 35 g. were used per one group, after fasting for 6 hours (water was freely taken in). Each test sample was suspended in a 1% tragacanth solution and administered orally at a concentration adjusted so as to give a volume of 40 ml/kg. After administration, feed was given and observation was continued for one week.
# ICR-strain male mice = test: in vivo; assay type: in vivo; settings: oral, ten mice/group, one week
# Method: as §2
# [2] = tested on: spontaneously hypertensive rats (SHR); settings: rat, in vivo, po
# Method: as §1
# α-adrenoceptor = settings: known; cited from earlier work
# [3] = SHR 3 mg/kg, oral administration, 1 hr, negative = decrease, read-out: Percent decrease in mean blood pressure after administration, 1 hr
# [4] = SHR 3 mg/kg, oral administration, 3 hrs, negative = decrease, read-out: Percent decrease in mean blood pressure after administration, 3 hrs
# [5] = SHR 3 mg/kg, oral administration, 6 hrs, negative = decrease, read-out: Percent decrease in mean blood pressure after administration, 6 hrs
# [6] = SHR 3 mg/kg, oral administration, 24 hrs, negative = decrease, read-out: Percent decrease in mean blood pressure after administration, 24 hrs
Structure (SMILES),"change in vivo at 3 mg/kg [1, 3]","change in vivo at 3 mg/kg [1, 4]","change in vivo at 3 mg/kg [1, 5]","change in vivo at 3 mg/kg [1, 6]",LD50 at 168 h (in vivo),"Number of dead mouse (ICR-strain male mice; 2,500 mg/kg)","Number of dead mouse (ICR-strain male mice; 5,000 mg/kg)","Number of dead mouse (ICR-strain male mice; 1,250 mg/kg)","change in vivo at 3 mg/kg ([1]; po, 24 h, read-out: Percent decrease in mean blood pressure after administration, 24 hrs)",change in heart rate [2],mechanism of antihypertensive activity (α-adrenoceptor)
"COc1cc2nc(N3CCN(C(=O)NC4CCCC4)CC3)nc(N)c2cc1OC [Compound 3, 2-(4-cyclopentylcarbamoyl-piperazin-1-yl)-4-amino-6,7-dimethoxyquinazoline]",-27.1%,-27%,-27%,-0.3%,> 5000 mg/kg,0,0,,,,
"COc1cc2nc(N3CCN(C(=O)NC4CCCCC4)CC3)nc(N)c2cc1OC [Compound 4, 2-(4-cyclohexylcarbamoyl-piperazin-1-yl)-4-amino-6,7-dimethoxyquinazoline]",-26.8%,-26.2%,-25.1%,-4.9%,> 5000 mg/kg,0,0,,,,
"COc1cc2nc(N3CCN(C(=O)NC4CCCCCC4)CC3)nc(N)c2cc1OC [Compound 5, 2-(4-cycloheptylcarbamoyl-piperazin-1-yl)-4-amino-6,7-dimethoxyquinazoline]",-18.4%,-24.7%,-19.2%,-3.7%,,,,,,,
"COc1cc2nc(N3CCN(C(=O)Nc4ccco4)CC3)nc(N)c2cc1OC [Compound 6, 2-[4-(furan-2-yl)carbamoyl-piperazin-1-yl]-4-amino-6,7-dimethoxyquinazoline]",-11.9%,-14.5%,-11.4%,1%,,,,,,,
"COc1cc2nc(N3CCN(C(=S)NC4CCCCC4)CC3)nc(N)c2cc1OC [Compound 9, 2-(4-cyclohexylthiocarbamoyl-piperazin-1-yl)-4-amino-6,7-dimethoxyquinazoline]",-19.3%,-22.2%,-20.5%,-1.3%,,,,,,,
"COc1cc2nc(N3CCN(C(=O)Nc4ccccc4)CC3)nc(N)c2cc1OC [Compound 12, 2-(4-phenylcarbamoyl-piperazin-1-yl)-4-amino-6,7-dimethoxyquinazoline]",-13.3%,-19.7%,-17%,3.7%,> 5000 mg/kg,0,0,,,,
"COc1cc2nc(N3CCN(C(=O)Nc4ccccc4C)CC3)nc(N)c2cc1OC [Compound 13, 2-[4-(2-methylphenyl)carbamoyl-piperazin-1-yl]-4-amino-6,7-dimethoxyquinazoline]",-20.2%,-17.9%,-21.4%,1.2%,2500 mg/kg,5,10,,,,
"COc1cc2nc(N3CCN(C(=O)Nc4ccc(C)cc4)CC3)nc(N)c2cc1OC [Compound 15, 2-[4-(4-methylphenyl)carbamoyl-piperazin-1-yl]-4-amino-6,7-dimethoxyquinazoline]",-17.1%,-18.5%,-21.8%,1.2%,,,,,,,
"COc1cccc(NC(=O)N2CCN(c3nc(N)c4cc(OC)c(OC)cc4n3)CC2)c1 [Compound 18, 2-[4-(3-methoxyphenyl)carbamoyl-piperazin-1-yl]-4-amino-6,7-dimethoxyquinazoline]",-5.9%,-17.2%,-15.9%,4.6%,,,,,,,
"CCOc1ccc(NC(=O)N2CCN(c3nc(N)c4cc(OC)c(OC)cc4n3)CC2)cc1 [Compound 21, 2-[4-(4-ethoxyphenyl)carbamoyl-piperazin-1-yl]-4-amino-6,7-dimethoxyquinazoline]",-22.4%,-24.5%,-27.7%,-6.4%,> 5000 mg/kg,0,0,,,,
"COc1cc2nc(N3CCN(C(=O)Nc4ccccc4F)CC3)nc(N)c2cc1OC [Compound 25, 2-[4-(2-fluorophenyl)carbamoyl-piperazin-1-yl]-4-amino-6,7-dimethoxyquinazoline]",-30.3%,-22%,-23.8%,-7.3%,1870 mg/kg,7,10,3,,,
"COc1cc2nc(N3CCN(C(=O)Nc4cccc(F)c4)CC3)nc(N)c2cc1OC [Compound 26, 2-[4-(3-fluorophenyl)carbamoyl-piperazin-1-yl]-4-amino-6,7-dimethoxyquinazoline]",-21.5%,-21.7%,-24.3%,0%,,,,,,,
"COc1cc2nc(N3CCN(C(=O)Nc4cccc(Cl)c4)CC3)nc(N)c2cc1OC [Compound 29, 2-[4-(3-chlorophenyl)carbamoyl-piperazin-1-yl]-4-amino-6,7-dimethoxyquinazoline]",-15.1%,-18.5%,-19.4%,-4.9%,,,,,,,
"COc1cc2nc(N3CCN(C(=O)Nc4ccc(Cl)cc4C)CC3)nc(N)c2cc1OC [Compound 34, 2-[4-(2-methyl-4-chlorophenyl)carbamoyl-piperazin-1-yl]-4-amino-6,7-dimethoxyquinazoline]",-12.1%,-19%,-18.2%,-1.2%,,,,,,,
"COc1cc2nc(N3CCN(/C(S)=N/c4ccccc4)CC3)nc(N)c2cc1OC [Compound 35, 2-(4-phenylthiocarbamoyl-piperazin-1-yl)-4-amino-6,7-dimethoxyquinazoline]",-28%,-20.9%,-24.7%,0.6%,> 5000 mg/kg,0,0,,,,
"COc1cc2nc(N3CCCN(C(=O)Nc4ccccc4)CC3)nc(N)c2cc1OC [Compound 37, 2-(4-phenylcarbamoyl-homopiperazin-1-yl)-4-amino-6,7-dimethoxyquinazoline]",-11.7%,-12.8%,-5%,0%,,,,,,,
"COc1cc2nc(N3CCN(C(=O)c4ccco4)CC3)nc(N)c2cc1OC [Prazosin, 2-[4-(2-furoyl)-piperazin-1-yl]-4-amino-6,7-dimethoxyquinazoline, reference compound]",-27.9%,-17.3%,-19%,,,,,,-1.7%,no significant change,relaxation of peripheral arterioles as a consequence of α-adrenoceptor blockade
